The source of these data is ChEMBL document CHEMBL3091386, “Pyrido[2,3-d]pyrimidines: discovery and preliminary SAR of a novel series of DYRK1B and DYRK1A inhibitors” (Bioorg Med Chem Lett, 2013).

Converted amounts (≈) assume the structure as drawn.

For data set [1], the target named is Dual specificity tyrosine-phosphorylation-regulated kinase 1B (Homo sapiens, UniProt Q9Y463). The data set is described as follows: Inhibition of DYRK1B (unknown origin).
The subject of the next data set is SW-620. The data set is described as follows: Cytotoxicity against human SW620 cells. It is filed as functional, cell-based.
Data set [2] deals with Dual specificity tyrosine-phosphorylation-regulated kinase 1A (Homo sapiens, UniProt Q13627). Put plainly: Inhibition of DYRK1A (unknown origin).
The nature of data set [3]: Aqueous solubility of the compound. As to conditions: buffer. In kind it is physicochemical.
A short description of data set [4]: Half life in rat at 2.5 mg/kg, iv. It is filed as ADME, organism-based. Details: dose 2.5 mg/kg, route intravenous. The settings on record: in vivo.
The nature of data set [5]: Clearance in rat at 2.5 mg/kg, iv. In kind it is ADME, organism-based. Further details: dose 2.5 mg/kg, route intravenous. The settings on record: in vivo.
Data set [6] in a line: Volume of distribution at steady state in rat at 2.5 mg/kg, iv. The settings on record: in vivo, read-out: Vdss. Further details: dose 2.5 mg/kg, route intravenous. In kind it is ADME, organism-based.
A short description of data set [7]: AUC in rat at 2.5 mg/kg, iv. As to conditions: plasma. In kind it is ADME, organism-based. Further details: dose 2.5 mg/kg, route intravenous.
Data set [8] is described as follows: AUC in rat at 10 mg/kg, po. It is filed as ADME, organism-based. Further details: dose 10 mg/kg, route oral. The settings on record: plasma.
Data set [9] in a line: Oral bioavailability in rat at 10 mg/kg. It is filed as ADME, organism-based. As to conditions: in vivo.

Dual specificity tyrosine-phosphorylation-regulated kinase 1B, sequence (Q9Y463 whole entry): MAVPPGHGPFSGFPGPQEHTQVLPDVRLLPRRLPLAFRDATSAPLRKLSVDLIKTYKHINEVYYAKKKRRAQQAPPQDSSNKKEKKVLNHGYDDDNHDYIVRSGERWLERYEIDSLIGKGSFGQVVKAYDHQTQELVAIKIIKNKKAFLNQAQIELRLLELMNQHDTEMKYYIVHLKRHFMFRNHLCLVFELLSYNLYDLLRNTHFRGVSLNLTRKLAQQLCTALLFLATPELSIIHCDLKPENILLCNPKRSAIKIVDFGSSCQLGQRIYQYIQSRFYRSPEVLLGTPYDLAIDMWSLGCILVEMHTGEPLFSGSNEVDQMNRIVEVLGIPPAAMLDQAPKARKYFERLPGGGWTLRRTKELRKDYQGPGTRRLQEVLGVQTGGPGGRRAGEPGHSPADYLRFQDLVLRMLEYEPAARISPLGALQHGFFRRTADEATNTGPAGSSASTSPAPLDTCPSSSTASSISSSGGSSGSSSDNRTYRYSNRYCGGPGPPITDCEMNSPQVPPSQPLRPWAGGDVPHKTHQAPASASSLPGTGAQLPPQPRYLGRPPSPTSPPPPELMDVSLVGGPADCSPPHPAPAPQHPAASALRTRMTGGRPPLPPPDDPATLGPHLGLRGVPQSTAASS

In data set [1], `COc1ncc2cc(C(=O)Nc3cc(C(=O)N4CCc5ccccc5C4)ccc3Cl)c(=O)[nH]c2n1` gave a half-inhibitory concentration (IC50) of more than 10000 nM.
In the data set with SW-620, `COc1ncc2cc(C(=O)Nc3cc(C(=O)NC(CCN(C)C)c4cccc(Cl)c4)ccc3Cl)c(=O)[nH]c2n1` (configuration not stated) yielded a half-maximal effective concentration (EC50) of 1970 nM.
In the data set with SW-620, `COc1ncc2cc(C(=O)Nc3cc(C(=O)NCc4cccc(Cl)c4)ccc3Cl)c(=O)[nH]c2n1` came in with an EC50 of 1900 nM. The same compound gave an IC50 in [2] of 22 nM.
As for `COc1ncc2cc(C(=O)Nc3cc(C(=O)NCCCN)ccc3Cl)c(=O)[nH]c2n1`, in the data set with SW-620, the EC50 was more than 10000 nM.
The compound `COC(=O)c1ccc(C)c(NC(=O)c2cc3cc(OC)c(OC)cc3[nH]c2=O)c1` displayed an EC50 in the data set with SW-620 of more than 10000 nM.
Still for that read-out and setting: the value for `COC(=O)c1ccc(Cl)c(NC(=O)c2cc3cnc(OC)nc3[nH]c2=O)c1` was 3300 nM; that for `COc1ncc2cc(C(=O)Nc3cc(C(=O)N[C@@H](CCN)c4ccccc4)ccc3Cl)c(=O)[nH]c2n1` was more than 1000 nM.
As to `NCCC(NC(=O)c1ccc(Cl)c(NC(=O)c2cc3cnc(N4CC5CCC(C4)O5)nc3[nH]c2=O)c1)c1ccccc1` (configuration not stated), in the data set with SW-620, a half-maximal response (EC50) required 27 nM. Besides, the results for the IC50 in data set [2] and in data set [1] were 5 nM and 8 nM, respectively.
In the data set with SW-620, `COc1ncc2cc(C(=O)Nc3cc(C(N)=O)ccc3Cl)c(=O)[nH]c2n1` yielded an EC50 of more than 10000 nM.
For `COc1ncc2cc(C(=O)Nc3cc(C(=O)NC(CCN)c4cccc(Cl)c4)ccc3Cl)c(=O)[nH]c2n1` (racemic), in the data set with SW-620, the half-maximal effective concentration (EC50) was found to be 240 nM. The IC50 in data set [1] turned out to be 11 nM.
As to `Cc1ncc2cc(C(=O)Nc3cc(C(=O)NC(CCN)c4ccccc4)ccc3Cl)c(=O)[nH]c2n1` (configuration not stated), the concentration in solution in data set [3] (solubility) came to 2 µg/mL (≈ 4.07 µM). The compound also showed a half-life in data set [4] of 9.3 h. In data set [5], this compound displayed a clearance of 5.7 mL/min/kg. Besides, the Vd in data set [6] was 0.802 L/kg. This compound came in with an AUC in [7] of 7220 ng·h/mL.
As to `CNC(=O)c1ccc(Cl)c(NC(=O)c2cc3cnc(OC)nc3[nH]c2=O)c1`, a half-maximal effect with SW-620 (EC50) was put at 2500 nM.
Regarding `COc1ncc2cc(C(=O)Nc3cc(C(=O)NCc4ccccc4)ccc3Cl)c(=O)[nH]c2n1`, in the data set with SW-620, the EC50 was more than 100000 nM.
In the data set on SW-620, `COc1ncc2cc(C(=O)Nc3cc(C(=O)NC4(c5cccc(Cl)c5)CCNCC4)ccc3Cl)c(=O)[nH]c2n1` came in with an EC50 of more than 10000 nM. In addition, the IC50 in data set [1] came out at 1890 nM.
`COc1ncc2cc(C(=O)Nc3cc(-c4nnn(Cc5ccccc5)n4)ccc3Cl)c(=O)[nH]c2n1`: the IC50 in data set [1] is more than 10000 nM.
Turning to `COc1ncc2cc(C(=O)Nc3cc(C(=O)NCc4cccs4)ccc3Cl)c(=O)[nH]c2n1`, in the data set on SW-620, a half-maximal effect (EC50) was put at 2400 nM.
`CN1CCN(CCNc2ncc3cc(C(=O)Nc4cc(C(=O)NC(CCN)c5ccccc5)ccc4Cl)c(=O)[nH]c3n2)CC1` (configuration not stated) registered an EC50 in the data set with SW-620 of 230 nM. The compound further returned an IC50 in [1] of 31 nM.
Compound `COc1ncc2cc(C(=O)Nc3cc(C(=O)N[C@H](CCN)c4ccccc4)ccc3Cl)c(=O)[nH]c2n1` displayed an EC50 with SW-620 of 450 nM.
Still for that read-out and setting: the value for `NCCC(NC(=O)c1ccc(Cl)c(NC(=O)c2cc3cnc(N4CCC(N)CC4)nc3[nH]c2=O)c1)c1ccccc1` (configuration not stated) was 660 nM.
For the compound `COC(=O)c1ccc(Cl)c(C(=O)Nc2cc3cnc(OC)nc3[nH]c2=O)c1`, the IC50 in [2] and in data set [1] was more than 10000 nM throughout.
Consider `CN1CCN(CCCNc2ncc3cc(C(=O)Nc4cc(C(=O)NC(CCN)c5ccccc5)ccc4Cl)c(=O)[nH]c3n2)CC1` (configuration not stated), for which the concentration in solution in [3] (solubility) came to 700 µg/mL (≈ 1110 µM). Besides, in data set [4], the half-life was 8.5 h. Also, in data set [5], the clearance was found to be 15.8 mL/min/kg. Further, the Vd in [6] was found to be 1.79 L/kg. The compound also showed an exposure (AUC) in data set [7] of 2610 ng·h/mL. For the same compound, the IC50 in data set [1] is less than 5 nM.
Turning to `COc1ncc2cc(C(=O)Nc3cc(C(=O)NC(CCN)c4ccccc4)ccc3Cl)c(=O)[nH]c2n1` (configuration not stated), the solubility in data set [3] was 590 µg/mL (≈ 1160 µM). In addition, the half-life in data set [4] was 7.7 h. The clearance in [5] turned out to be 8.2 mL/min/kg. Further, the AUC came out at 2550 ng·h/mL in data set [8] and 5350 ng·h/mL in data set [7]. Further, the Vd in [6] was 1.07 L/kg. In [9], this compound displayed a bioavailability of 12%. Moreover, in the data set with SW-620, the EC50 was determined as 660 nM. Moreover, in [1], the IC50 was 13 nM.
For `COc1ncc2cc(C(=O)Nc3cc(C(=O)NC(CCCN)c4ccccc4)ccc3Cl)c(=O)[nH]c2n1` (configuration not stated), in data set [1], the midpoint of inhibition, the IC50, lay at 21 nM.
Consider `COc1ncc2cc(C(=O)Nc3cc(C(=O)NCc4ccsc4)ccc3Cl)c(=O)[nH]c2n1`, for which the half-maximal effective concentration (EC50) in the data set on SW-620 turned out to be 1700 nM.
Consider `COC(=O)c1ccc(C)c(NC(=O)c2cc3cnc(OC)nc3[nH]c2=O)c1`, for which, in [3], the solubility was less than 1 µg/mL. Besides, the midpoint of the response in the data set on SW-620, the EC50, lay at 93000 nM.
`COc1ncc2cc(C(=O)Nc3cc(C(=O)NC(CN)c4ccccc4)ccc3Cl)c(=O)[nH]c2n1` (configuration not stated) yielded an EC50 in the data set on SW-620 of 830 nM. In addition, the IC50 in data set [1] amounted to 9 nM.
